We go through 27 molecules from US12209096B2, “Compounds and compositions for inducing chondrogenesis” (NOVARTIS AG, priority 2017, dated 2025).

The test relates to NHACs. The experiment in a line: calcium flux assay. It is filed as cell-based, human. The note with it: Homo sapiens; for Emax: read-out: (A) % Efficacy. In short, it runs like this:
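Normal human articular chondrocytes plated at 2000 cells/well and loaded 24 h later with Calcium 5 dye in HBSS/HEPES with 5 mM probenecid for 1 h at room temperature. Test compound added at indicated dose; fluorescence (ex 470–495/em 515–575 nm) recorded on FLIPR before and after addition.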
For orientation: Calcium assays in cells follow changes in intracellular calcium, usually with a dye or a luminescent sensor.

`O=C(Nc1ccc(Cl)c(Cl)c1)[C@H]1[C@H](c2ccnc(F)c2)[C@@H]2O[C@H]1C[C@H]2O` [Example 142b, (1S,2S,3R,4S,5R)-N-(3,4-dichlorophenyl)-3-(2-fluoropyridin-4-yl)-5-hydroxy-7-oxabicyclo[2.2.1]heptane-2-carboxamide]: the EC50 stood at 0.79 µM and the Emax stood at 54%.
The like results for `O=C(Nc1ccc(Cl)c(Cl)c1)[C@H]1[C@@H]2O[C@@H]([C@H]3C[C@H]32)[C@@H]1c1ccnc(F)c1` [Example 119, (1S,2S,4R,5R,6R,7S)—N-(3,4-dichlorophenyl)-7-(2-fluoropyridin-4-yl)-8-oxatricyclo[3.2.1.0^2,4]octane-6-carboxamide] were, in that order, 25 µM and 149%.
`Cc1cc([C@H]2[C@H]3O[C@H](C[C@@H]3F)[C@H]2C(=O)Nc2ccc(Cl)c(Cl)c2)ccn1` [Example 16, (1R,2S,3S,4R,5S)-N-(3,4-dichlorophenyl)-5-fluoro-3-(2-methylpyridin-4-yl)-7-oxabicyclo[2.2.1]heptane-2-carboxamide]: the EC50 was 21 µM and the Emax worked out at 105%.
The like results for `O=C(Nc1ccc(Cl)c(Cl)c1)[C@@H]1[C@@H]2O[C@@H]([C@H]3C[C@H]32)[C@@H]1c1cnc(F)nc1` [Example 36, (1S,2S,4R,5R,6S,7S)—N-(3,4-dichlorophenyl)-7-(2-fluoropyrimidin-5-yl)-8-oxatricyclo[3.2.1.0^2,4]octane-6-carboxamide] were, in that order, 8.6 µM and 124%.
Regarding `CN[C@@H]1C[C@H]2O[C@@H]1[C@H](c1ccnc(F)c1)[C@H]2C(=O)Nc1ccc(Cl)c(Cl)c1` [Example 171, (1R,2R,3S,4R,5R)—N-(3,4-dichlorophenyl)-3-(2-fluoropyridin-4-yl)-5-(methylamino)-7-oxabicyclo[2.2.1]heptane-2-carboxamide], the concentration giving a half-maximal response (EC50) came to 24 µM and the Emax came to 237%.
Turning to `O=C(Nc1ccc(Cl)c(Cl)c1)[C@@H]1[C@H]2O[C@H]([C@@H]3C[C@@H]32)[C@H]1c1ccnc(F)c1F` (single isomer, unassigned) [Example 122b], the EC50 came to 17 µM and the Emax was found to be 217%.
For `O=C(Nc1ccc(Cl)c(Cl)c1)[C@@H]1[C@@H](c2ccnc(F)c2F)[C@H]2O[C@@H]1C[C@@H]2O` [Example 146, (1R,2R,3S,4R,5S)—N-(3,4-dichlorophenyl)-3-(2,3-difluoropyridin-4-yl)-5-hydroxy-7-oxabicyclo[2.2.1]heptane-2-carboxamide], in that order: 20 µM and 150%.
Turning to `O=C(Nc1ccc(Cl)c(Cl)c1)[C@H]1[C@@H](c2cnc(C(F)(F)F)nc2)[C@H]2O[C@@H]1C[C@@H]2O` [Example 62, (1R,2S,3S,4R,5S)—N-(3,4-dichlorophenyl)-5-hydroxy-3-(2-(trifluoromethyl)pyrimidin-5-yl)-7-oxabicyclo[2.2.1]heptane-2-carboxamide], the EC50 was found to be 8.2 µM and the Emax stood at 61%.
Consider `O=C(Nc1cnc(Cl)c(Cl)c1)[C@H]1[C@@H]2O[C@@H]([C@H]3C[C@H]32)[C@@H]1c1ccncc1` [Example 136, (1S,2S,4R,5R,6R,7S)—N-(5,6-dichloropyridin-3-yl)-7-(pyridin-4-yl)-8-oxatricyclo[3.2.1.0^2,4]octane-6-carboxamide], for which the EC50 came out at 17 µM and the Emax is 254%.
On to `O=C(Nc1ccc(Cl)c(Cl)c1)[C@H]1[C@@H]2O[C@@H](C[C@H]2F)[C@@H]1c1ccnc(F)c1` [Example 112, (1S,2R,3S,4S,6R)—N-(3,4-dichlorophenyl)-6-fluoro-3-(2-fluoropyridin-4-yl)-7-oxabicyclo[2.2.1]heptane-2-carboxamide], for which the EC50 is 28 µM and the Emax was found to be 99%.
The like results for `Cc1cc([C@H]2[C@H]3O[C@H]([C@@H]4C[C@@H]43)[C@H]2C(=O)Nc2cccc(C(F)(F)F)c2)ccn1` [Example 26, (1S,2S,4R,5R,6S,7S)-7-(2-methylpyridin-4-yl)-N-[3-(trifluoromethyl)phenyl]-8-oxatricyclo[3.2.1.0^2,4]octane-6-carboxamide] were, in that order, 23 µM and 54%.
For `Cc1cc([C@H]2[C@@H]3C[C@@H](O)C(O3)[C@H]2C(=O)Nc2cccc(C(F)(F)F)c2)ccn1` (stereo in doubt) [Example 9, (1R,2S,3S,4S,6R)-6-hydroxy-3-(2-methylpyridin-4-yl)-N-[3-(trifluoromethyl)phenyl]-7-oxabicyclo[2.2.1]heptane-2-carboxamide], the EC50 is above 50 µM and the Emax is 0%.
Consider `O=C(Nc1ccc(Cl)c(Cl)c1)[C@@H]1[C@@H](c2ccnc(F)c2)[C@H]2O[C@@H]1C[C@H]2NCCO` [Example 173, (1R,2R,3S,4R,5R)—N-(3,4-dichlorophenyl)-3-(2-fluoropyridin-4-yl)-5-((2-hydroxyethyl)amino)-7-oxabicyclo[2.2.1]heptane-2-carboxamide], for which the EC50 came out at 27 µM and the Emax is 54%.
Consider `O=C(Nc1cnc(Cl)c(Cl)c1)[C@@H]1[C@@H](c2ccncc2)[C@H]2O[C@@H]1C[C@@H]2O` [Example 87, (1R,2R,3S,4R,5S)—N-(5,6-dichloropyridin-3-yl)-5-hydroxy-3-(pyridin-4-yl)-7-oxabicyclo[2.2.1]heptane-2-carboxamide], for which the EC50 is above 50 µM and the Emax is 14%.
The like results for `Cc1cc([C@H]2[C@H]3O[C@H](C[C@H]3F)[C@@H]2C(=O)Nc2ncc(C)s2)ccn1` [Example 102, (1R,2R,3S,4R,5R)-5-fluoro-3-(2-methylpyridin-4-yl)-N-(5-methylthiazol-2-yl)-7-oxabicyclo[2.2.1]heptane-2-carboxamide] were, in that order, 2.1 µM and 84%.
The like results for `Cc1cc([C@H]2[C@H]3O[C@H](C[C@H]3N[C@H]3C[C@H](O)C3)[C@@H]2C(=O)Nc2ccc(Cl)c(Cl)c2)ccn1` [Example 170, (1R,2R,3S,4R,5R)—N-(3,4-dichlorophenyl)-5-(((1r,3R)-3-hydroxycyclobutyl)amino)-3-(2-methylpyridin-4-yl)-7-oxabicyclo[2.2.1]heptane-2-carboxamide] were, in that order, above 50 µM and 37%.
For `Cc1nccc([C@H]2[C@H]3O[C@H](C[C@@H]3O)[C@@H]2C(=O)Nc2ccc(Cl)c(Cl)c2)n1` [Example 82, (1R,2R,3S,4R,5S)—N-(3,4-dichlorophenyl)-5-hydroxy-3-(2-methylpyrimidin-4-yl)-7-oxabicyclo[2.2.1]heptane-2-carboxamide], the EC50 is above 50 µM and the Emax amounted to 74%.
Regarding `Cc1cc([C@@H]2[C@@H]3O[C@@H]([C@H]4C[C@H]43)[C@@H]2C(=O)Nc2ccc(Cl)c(Cl)c2)ccn1` (single isomer, unassigned) [Example 23b], the EC50 was above 50 µM and the Emax came out at 0%.
For the molecule `Cc1ccc([C@H]2[C@H]3O[C@H](C[C@H]3F)[C@@H]2C(=O)Nc2ccc(Cl)c(Cl)c2)cn1` [Example 164, (1R,2R,3S,4R,5R)—N-(3,4-dichlorophenyl)-5-fluoro-3-(6-methylpyridin-3-yl)-7-oxabicyclo[2.2.1]heptane-2-carboxamide], the EC50 was above 50 µM and the Emax was 0%.
The like results for `O=C(Nc1ccc(Cl)c(Cl)c1)[C@@H]1[C@H](c2ccnc(F)c2)[C@@H]2O[C@H]1C[C@H]2O` (single isomer, unassigned) [Example 52b] were, in that order, above 50 µM and 1%.
The like results for `Cc1ncc([C@H]2[C@H]3O[C@H]([C@@H]4C[C@@H]43)[C@H]2C(=O)Nc2ccc(Cl)c(Cl)c2)cn1` [Example 42, (1S,2S,4R,5R,6S,7S)—N-(3,4-dichlorophenyl)-7-(2-methylpyrimidin-5-yl)-8-oxatricyclo[3.2.1.0^2,4]octane-6-carboxamide] were, in that order, 18 µM and 57%.
The like results for `Cc1cc([C@H]2[C@H]3O[C@H]([C@@H]4C[C@@H]43)[C@@H]2C(=O)Nc2ccc(OC(F)(F)F)c(F)c2)ccn1` [Example 71, (1S,2S,4R,5R,6R,7S)—N-(3-fluoro-4-(trifluoromethoxy)phenyl)-7-(2-methylpyridin-4-yl)-8-oxatricyclo[3.2.1.0^2,4]octane-6-carboxamide] were, in that order, 6.2 µM and 250%.
On to `Cc1cc([C@H]2[C@H]3O[C@H](C[C@H]3F)[C@@H]2C(=O)Nc2cccc(C(F)(F)F)c2)ccn1` [Example 96, (1R,2R,3S,4R,5R)-5-fluoro-3-(2-methylpyridin-4-yl)-N-(3-(trifluoromethyl)phenyl)-7-oxabicyclo[2.2.1]heptane-2-carboxamide], for which the EC50 was 14 µM and the Emax turned out to be 281%.
For `Nc1ncc([C@H]2[C@H]3O[C@H]([C@@H]4C[C@@H]43)[C@H]2C(=O)Nc2ccc(Cl)c(Cl)c2)cn1` [Example 39, (1S,2S,4R,5R,6S,7S)-7-(2-aminopyrimidin-5-yl)-N-(3,4-dichlorophenyl)-8-oxatricyclo[3.2.1.0^2,4]octane-6-carboxamide], the EC50 came out at 0.53 µM and the Emax came out at 40%.
For `Nc1ncc([C@@H]2[C@@H](C(=O)Nc3ccc(Cl)c(Cl)c3)[C@@H]3O[C@H]2C[C@H]3F)cn1` [Example 114, (1S,2R,3S,4S,6R)-3-(2-aminopyrimidin-5-yl)-N-(3,4-dichlorophenyl)-6-fluoro-7-oxabicyclo[2.2.1]heptane-2-carboxamide], in that order: 30 µM and 127%.
As to `O=C(Nc1cccc(C(F)(F)F)c1)[C@H]1[C@@H]2O[C@@H]([C@H]3C[C@H]32)[C@@H]1c1cncnc1` [Example 130, (1S,2S,4R,5R,6R,7S)-7-(pyrimidin-5-yl)-N-(3-(trifluoromethyl)phenyl)-8-oxatricyclo[3.2.1.0^2,4]octane-6-carboxamide], the EC50 worked out at 10 µM and the Emax came out at 237%.
As for `COc1ccc(NC(=O)[C@H]2[C@@H]3O[C@@H]([C@H]4C[C@H]43)[C@@H]2c2ccnc(F)c2F)cn1` [Example 127, (1S,2S,4R,5R,6R,7S)-7-(2,3-difluoropyridin-4-yl)-N-(6-methoxypyridin-3-yl)-8-oxatricyclo[3.2.1.0^2,4]octane-6-carboxamide], the EC50 is above 50 µM and the Emax was 62%.

Broadly, the EC50 is the concentration giving half of the maximal effect.
